Data taken from US20230228744A1, “DRY EYE DISEASE BIOMARKERS AND THEIR USE FOR TREATMENT” (Aldeyra Therapeutics, Inc., priority 2020, published 2023).

Assay: Exploratory aldehyde trapping studies in PBS and ACN/H2O (MS)
Type: biochemical
Conditions: 10 μM aldehyde, 1 mM trapping reagent, PBS or 50/50 ACN/H2O
Protocol: Semicarbazide (SCZ), glutathione (GSH), cysteine, and N-acetyl cysteine were used as trapping agents with the aldehydes 4-hydroxynonenal (4-HNE), malondialdehyde, acetaldehyde, hexanal, pentanal, and decanal. 10 μM of aldehyde was mixed with 1 mM of trapping reagent in either PBS or 50/50 ACN/H2O.

SMILES | trapping of aldehydes as judged by MS | trapping effectiveness, comparison of trapping agents
N[C@@H](CCC(=O)N[C@@H](CS)C(=O)NCC(=O)O)C(=O)O [glutathione] | appeared to trap aldehydes | –
NNC(N)=O [semicarbazide, Semicarbazide] | appeared to trap aldehydes | more effective than GSH
